Reference: patent US20250214991A1 (Oncopia Therapeutics, Inc. d/b/a/ SK Life Science Labs, priority 2022, published 2025)

Legend:
IKZF2 = IKZF2 (Homo sapiens (Human), UniProt Q96SW2+Q9UKS7); experiment: In vitro IKZF2 HiBit Assay (HEK293T Flp-in-HiBiT cells); format: cell-based; conditions: HEK293T Flp-in-HiBiT cells, 6 hrs incubation; for DC50: read-out: IKZF2 HiBit DC50; for Dmax: HEK-293T, read-out: IKZF2 HiBit Dmax (%)
Method: In Vitro IKZF2 HiBit Assay
The HiBiT protein tagging system was applied to modified HEK293T Flp-in-HiBiT cells (polyclone) via a CRISPR/Cas9-mediated insertion of the HiBiT peptide tag (Promega™) to the N-terminus of the IKZF2 gene locus (Neon™ transfection system). Test and reference compounds are diluted from 1 mM at 3 folds for 11 doses. 25 nL of diluted compound is transfered to assay plates (Corning3570) using ECHO550, the final DMSO concentration @ 0.1%. The cells are seeded in 3000/25 μL/well to compound plates. It is then incubated for 6 hrs in TC incubator. The amount of Nano-Glo® HiBiT lytic reagent needed to perform the desired experiments is calculated. The Nano-Glo® HiBiT lytic reagent is brought to room temperature. The LgBiT protein is diluted to 1:100 and the Nano-Glo® HiBiT lytic substrate is diluted to 1:50 into an appropriate volume of room temperature Nano-Glo® HiBiT lytic buffer. 15 μL of the detection reagent (or without LgBiT) is dispensed to corresponding well according to the layout. The plate is then shaked for 10 mins at room temperature. After briefly centrifuge, the plate is read on Envision. At the indicated timepoints, the Nano-Glo® HiBiT lytic detection system (Promega™) was utilized for detecting bioluminescence of the HiBiT tag in treated cells: abundance of the tag is proportionate to the level of luminescence. Following normalization to DMSO, dose-response curves were plotted (GraphPad Prism) to determine the concentration points at which 50% of HiBiT-Helios degradation was achieved by each compound. The extent of degradation (range of luminescence) from the highest to lowest concentration points was calculated to determine the Dmax.
(§1) DC50, A: <1 nM; B: 1-10 nM; C: 10-100 nM; D: 100-1000 nM; E: 1000-10000 nM; F: >10,000 nM. Dmax, A: >80%; B: 60-80%; C: 40-60%; D: 20-40%; E: <20%.

IKZF1 = IKZF1 (Homo sapiens (Human), UniProt Q13422+Q96SW2); experiment: In vitro IKZF1 HiBit Assay (HEK293T Flp-in-HiBiT-IKZF1 stable cell line); format: cell-based; conditions: HEK293T Flp-in-HiBiT-IKZF1 stable cell line, 6 hrs incubation; for DC50: read-out: IKZF1 HiBit DC50; for Dmax: HEK-293T, read-out: IKZF1 HiBit Dmax (%)
Chain of IKZF1 (Q13422 whole entry): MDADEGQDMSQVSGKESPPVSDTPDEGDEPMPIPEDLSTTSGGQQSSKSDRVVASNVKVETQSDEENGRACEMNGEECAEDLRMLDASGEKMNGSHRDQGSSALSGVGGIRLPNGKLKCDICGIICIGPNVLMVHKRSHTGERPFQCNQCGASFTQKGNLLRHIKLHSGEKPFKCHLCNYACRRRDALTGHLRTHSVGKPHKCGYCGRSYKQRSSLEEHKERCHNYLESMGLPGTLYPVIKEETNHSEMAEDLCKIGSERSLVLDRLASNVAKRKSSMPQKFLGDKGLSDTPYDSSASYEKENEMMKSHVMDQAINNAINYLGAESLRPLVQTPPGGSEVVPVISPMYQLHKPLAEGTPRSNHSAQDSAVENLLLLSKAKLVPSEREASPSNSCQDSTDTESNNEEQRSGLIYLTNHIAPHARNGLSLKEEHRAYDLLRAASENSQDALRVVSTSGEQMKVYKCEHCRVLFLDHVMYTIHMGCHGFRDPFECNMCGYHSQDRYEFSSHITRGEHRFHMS
Chain of IKZF1 (Q96SW2 whole entry): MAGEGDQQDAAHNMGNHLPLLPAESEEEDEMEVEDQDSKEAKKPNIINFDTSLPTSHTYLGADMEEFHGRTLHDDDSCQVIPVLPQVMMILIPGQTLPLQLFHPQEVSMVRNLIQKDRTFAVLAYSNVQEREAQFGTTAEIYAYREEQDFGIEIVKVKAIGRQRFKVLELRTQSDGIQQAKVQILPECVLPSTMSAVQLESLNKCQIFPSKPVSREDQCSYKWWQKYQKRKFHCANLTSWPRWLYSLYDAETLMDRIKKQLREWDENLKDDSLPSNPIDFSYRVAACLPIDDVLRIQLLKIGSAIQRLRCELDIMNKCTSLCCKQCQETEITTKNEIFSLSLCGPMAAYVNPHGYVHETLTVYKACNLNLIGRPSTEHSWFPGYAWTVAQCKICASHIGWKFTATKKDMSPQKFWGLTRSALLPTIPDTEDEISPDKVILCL
Chain of IKZF1 (Q16531 2-1140 partner): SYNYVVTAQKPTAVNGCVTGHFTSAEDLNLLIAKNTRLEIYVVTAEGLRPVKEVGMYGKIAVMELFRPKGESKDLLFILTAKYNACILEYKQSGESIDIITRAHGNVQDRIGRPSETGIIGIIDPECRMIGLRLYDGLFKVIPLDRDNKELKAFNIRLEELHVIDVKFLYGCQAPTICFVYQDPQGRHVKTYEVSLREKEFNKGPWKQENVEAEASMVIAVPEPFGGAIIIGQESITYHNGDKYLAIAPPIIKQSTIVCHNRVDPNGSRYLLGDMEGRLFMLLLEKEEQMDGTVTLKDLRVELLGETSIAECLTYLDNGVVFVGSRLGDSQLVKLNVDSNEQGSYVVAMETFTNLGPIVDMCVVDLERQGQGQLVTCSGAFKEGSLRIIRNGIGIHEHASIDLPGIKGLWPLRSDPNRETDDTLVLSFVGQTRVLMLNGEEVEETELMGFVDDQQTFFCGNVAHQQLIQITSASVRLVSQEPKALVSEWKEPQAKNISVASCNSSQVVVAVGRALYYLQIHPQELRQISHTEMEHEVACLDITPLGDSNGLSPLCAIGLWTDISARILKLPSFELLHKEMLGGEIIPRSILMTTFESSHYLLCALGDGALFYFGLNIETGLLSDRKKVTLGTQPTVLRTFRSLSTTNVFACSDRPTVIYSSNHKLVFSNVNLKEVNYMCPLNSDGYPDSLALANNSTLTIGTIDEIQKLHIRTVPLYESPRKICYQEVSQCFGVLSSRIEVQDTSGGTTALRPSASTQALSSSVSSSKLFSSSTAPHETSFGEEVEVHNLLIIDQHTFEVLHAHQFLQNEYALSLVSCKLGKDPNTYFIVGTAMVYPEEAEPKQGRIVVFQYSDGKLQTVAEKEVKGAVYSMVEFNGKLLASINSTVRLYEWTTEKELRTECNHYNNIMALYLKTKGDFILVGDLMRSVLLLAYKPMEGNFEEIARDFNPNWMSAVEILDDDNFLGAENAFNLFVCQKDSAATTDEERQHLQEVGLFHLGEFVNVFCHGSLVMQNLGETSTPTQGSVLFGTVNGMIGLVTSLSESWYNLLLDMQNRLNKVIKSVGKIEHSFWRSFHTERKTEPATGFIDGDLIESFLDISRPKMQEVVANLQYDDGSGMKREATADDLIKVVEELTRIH
Method: In Vitro IKZF1 HiBit Assay
The HiBiT protein tagging system was applied to modified Cells: modified HEK293T Flp-in-HiBiT-IKZF1 stable cell line (polyclone) via a CRISPR/Cas9-mediated insertion of the HiBiT peptide tag (Promega™) to the N-terminus of the […] gene locus (Neon™ transfection system).
25 nL of diluted compound is transferred to assay plates (Corning3571) using ECHO550, the final DMSO concentration @ 0.1%. The cells are seeded in 3000/25 μL/well to compound plates. The plates are incubated for 6 hrs in TC incubator. The amount of Nano-Glo® HiBiT lytic reagent needed to perform the desired experiments is calculated. The Nano-Glo® HiBiT lytic reagent is brought to room temperature. The LgBiT protein is diluted to 1:100 and the Nano-Glo® HiBiT lytic substrate is brought to 1:50 into an appropriate volume of room temperature Nano-Glo® HiBiT lytic buffer. 15 μL of the detection reagent (or without LgBiT) is dispensed to corresponding well according to the layout. The plate is shaked for 10 mins at room temperature. After briefly centrifuge, the plateis read on Envision. At the indicated timepoints, the Nano-Glo® HiBiT lytic detection system (Promega™) was utilized for detecting bioluminescence of the HiBiT tag in treated cells: abundance of the tag is proportionate to the level of luminescence. Following normalization to DMSO, dose-response curves were plotted (GraphPad Prism) to determine the concentration points at which 50% of HiBiT-Ikaros degradation was achieved by each compound. The extent of degradation (range of luminescence) from the highest to lowest concentration points was calculated to determine the Dmax.
as §1

Chain of IKZF2 (Q9UKS7 whole entry): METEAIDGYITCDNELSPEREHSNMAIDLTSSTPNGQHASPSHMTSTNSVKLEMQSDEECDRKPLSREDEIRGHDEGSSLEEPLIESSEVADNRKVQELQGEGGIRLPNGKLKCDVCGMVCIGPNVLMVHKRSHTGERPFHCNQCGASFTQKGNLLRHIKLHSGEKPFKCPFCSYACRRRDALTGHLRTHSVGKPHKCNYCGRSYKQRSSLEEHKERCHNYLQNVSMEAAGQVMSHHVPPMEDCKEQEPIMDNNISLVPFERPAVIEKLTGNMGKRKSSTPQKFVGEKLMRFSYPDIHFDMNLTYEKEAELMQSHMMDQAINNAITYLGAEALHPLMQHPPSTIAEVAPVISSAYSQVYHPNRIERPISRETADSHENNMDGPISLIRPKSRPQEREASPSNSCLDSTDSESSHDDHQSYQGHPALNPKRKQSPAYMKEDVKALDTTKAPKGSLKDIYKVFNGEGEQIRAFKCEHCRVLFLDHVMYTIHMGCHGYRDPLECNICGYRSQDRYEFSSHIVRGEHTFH
Chain of IKZF2 (Q96SW2 whole entry): as the sequence (Q96SW2 whole entry) above
Chain of IKZF2 (Q16531 2-1140 partner): as the sequence (Q16531 2-1140 partner) above

Structure (SMILES)	DC50 (IKZF2) [nM]	Dmax (IKZF2) [%]	DC50 (IKZF1) [nM]	Dmax (IKZF1) [%]
O=C1CCC(N2Cc3cc(-c4cc(CN5CCCC5C(F)(F)F)c5ccn(C6COC6)c5n4)ccc3C2=O)C(=O)N1 (stereo not drawn) [Example 253, 3-(5-(1-(oxetan-3-yl)-4-((2-(trifluoromethyl)pyrrolidin-1-yl)methyl)-1H-pyrrolo[2,3-b]pyridin-6-yl)-1-oxoisoindolin-2-yl) piperidine-2,6-dione]	10 to 100	40 to 60	> 10000	< 20
CC(=O)N1CC(n2ccc3c(CN4CCCC4)cc(-c4ccc5c(c4)CN(C4CCC(=O)NC4=O)C5=O)nc32)C1 (stereo not drawn) [Example 256, 3-(5-(1-(1-acetylazetidin-3-yl)-4-(pyrrolidin-1-ylmethyl)-1H-pyrrolo[2,3-b]pyridin-6-yl)-1-oxoisoindolin-2-yl) piperidine-2,6-dione]	10 to 100	> 80	> 10000	< 20
O=C1CCC(N2Cc3cc(-c4cc(CN5CCCC5CF)c5ccn(C6COC6)c5n4)ccc3C2=O)C(=O)N1 (stereo not drawn) [Example 257, 3-(5-(4-((2-(fluoromethyl)pyrrolidin-1-yl)methyl)-1-(oxetan-3-yl)-1H-pyrrolo[2,3-b]pyridin-6-yl)-1-oxoisoindolin-2-yl) piperidine-2,6-dione]	1 to 10	> 80	1 to 10	20 to 40
Cc1nc2c(CN3CCCC3)cc(-c3ccc4c(c3)CN(C3CCC(=O)NC3=O)C4=O)nc2n1C1COC1 (stereo not drawn) [Example 258, 3-(5-(2-methyl-3-(oxetan-3-yl)-7-(pyrrolidin-1-ylmethyl)-3H-imidazo[4,5-b]pyridin-5-yl)-1-oxoisoindolin-2-yl) piperidine-2,6-dione]	10 to 100	60 to 80	> 10000	< 20

Results, then the molecule that gave them:

DC50 (IKZF2) [nM]	Dmax (IKZF2) [%]	DC50 (IKZF1) [nM]	Dmax (IKZF1) [%]	Structure (SMILES)
> 10000	< 20	> 10000	< 20	Cc1cc(-c2ccc3c(c2)CN(C2CCC(=O)NC2=O)C3=O)nc2c1nc(CN1CCCC1)n2C1COC1 (stereo not drawn) [Example 259, 3-(5-(7-methyl-3-(oxetan-3-yl)-2-(pyrrolidin-1-ylmethyl)-3H-imidazo[4,5-b]pyridin-5-yl)-1-oxoisoindolin-2-yl) piperidine-2,6-dione]
1 to 10	60 to 80	> 10000	< 20	CCc1c(-c2ccc3c(c2)CN(C2CCC(=O)NC2=O)C3=O)nc2c(ccn2C2COC2)c1CN1CCCC1 (stereo not drawn) [Example 262, 3-(5-(5-ethyl-1-(oxetan-3-yl)-4-(pyrrolidin-1-ylmethyl)-1H-pyrrolo[2,3-b]pyridin-6-yl)-1-oxoisoindolin-2-yl) piperidine-2,6-dione]
1 to 10	40 to 60	> 10000	< 20	Cn1cnc(-n2ccc3c(CN4CCCC4)cc(-c4ccc5c(c4)CN([C@H]4CCC(=O)NC4=O)C5=O)nc32)c1 [Example 263, (S)-3-(5-(1-(1-methyl-1H-imidazol-4-yl)-4-(pyrrolidin-1-ylmethyl)-1H-pyrrolo[2,3-b]pyridin-6-yl)-1-oxoisoindolin-2-yl) piperidine-2,6-dione]
1 to 10	60 to 80	> 10000	< 20	O=C1CC[C@H](N2Cc3cc(-c4cc(CN5CCCC5)c5ccn(-c6ncco6)c5n4)ccc3C2=O)C(=O)N1 [Example 267, (S)-3-(5-(1-(oxazol-2-yl)-4-(pyrrolidin-1-ylmethyl)-1H-pyrrolo[2,3-b]pyridin-6-yl)-1-oxoisoindolin-2-yl) piperidine-2,6-dione]
1 to 10	> 80	100 to 1000	20 to 40	O=C1CC[C@H](N2Cc3cc(-c4cc(CN5CCCC5)c5ccn(-c6cn[nH]c6)c5n4)ccc3C2=O)C(=O)N1 [Example 271, (S)-3-(5-(1-(1H-pyrazol-4-yl)-4-(pyrrolidin-1-ylmethyl)-1H-pyrrolo[2,3-b]pyridin-6-yl)-1-oxoisoindolin-2-yl) piperidine-2,6-dione]
